Results from patent US20250320206A1, “STAT6 DEGRADERS” (Gilead Sciences, Inc., priority 2024, published 2025).

How the values were obtained:
[1] = system: Eotaxin-3 release in human whole blood stimulated with IL-4; test: Human Whole Blood Eotaxin-3 Assay (IL-4 stimulated eotaxin-3 release); assay type: cell-based; conditions: IL-4 stimulation, 48 h, values given for compounds with >80% Emax, geometric mean
Procedure, shortened: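 Lithium-heparin human whole blood preincubated 2 h at 37° C with 4-fold serially diluted compounds (0.5% DMSO), then stimulated with recombinant human IL-4 ([…]) for 48 h. Eotaxin-3 (CCL26) in supernatant quantified by MSD immunoassay.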

STAT6 = target: T1, STAT6 (Homo sapiens, UniProt P42226); test: Stat6 Degrader Assay (HiBiT based, HeLa LgBiT clone 4.14); assay type: cell-based; conditions: HeLa LgBiT clone 4.14 HiBiT-STAT6, 4-24 h incubation; values given for compounds with >80% Emax; geometric mean; read-out: STAT6 degradation DC50
T1 construct: These cells express endogenous STAT6; host or cells: HeLa LgBiT clone 4.14
T1 sequence (P42226 1-847): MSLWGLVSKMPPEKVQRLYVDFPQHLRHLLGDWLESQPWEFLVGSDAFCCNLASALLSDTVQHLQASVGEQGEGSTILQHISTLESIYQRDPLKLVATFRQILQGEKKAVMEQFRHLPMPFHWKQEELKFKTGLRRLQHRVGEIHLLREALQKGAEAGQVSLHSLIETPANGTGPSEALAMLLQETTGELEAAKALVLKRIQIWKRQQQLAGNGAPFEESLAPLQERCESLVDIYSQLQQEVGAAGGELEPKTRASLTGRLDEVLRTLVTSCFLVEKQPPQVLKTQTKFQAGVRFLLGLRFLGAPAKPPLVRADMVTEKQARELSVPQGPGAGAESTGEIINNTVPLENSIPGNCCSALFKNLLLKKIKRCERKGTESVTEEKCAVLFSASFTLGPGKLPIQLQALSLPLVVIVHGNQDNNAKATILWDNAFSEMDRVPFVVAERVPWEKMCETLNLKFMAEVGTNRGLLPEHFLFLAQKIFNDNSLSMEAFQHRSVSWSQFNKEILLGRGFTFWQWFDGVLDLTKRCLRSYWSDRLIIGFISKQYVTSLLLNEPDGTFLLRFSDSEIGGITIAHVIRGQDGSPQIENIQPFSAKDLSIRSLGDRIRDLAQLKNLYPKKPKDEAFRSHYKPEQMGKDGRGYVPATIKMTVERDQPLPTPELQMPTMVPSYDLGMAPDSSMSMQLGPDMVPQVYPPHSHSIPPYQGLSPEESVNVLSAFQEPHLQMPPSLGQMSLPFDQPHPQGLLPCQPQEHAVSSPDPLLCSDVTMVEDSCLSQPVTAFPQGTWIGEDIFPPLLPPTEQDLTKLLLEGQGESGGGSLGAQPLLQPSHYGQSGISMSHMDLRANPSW
Procedure, shortened: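 HeLa LgBiT clone 4.14 cells with CRISPR HiBiT-tagged endogenous STAT6, 5000 cells/well, compound dosed then incubated 4-24 h at 37° C, 5% CO2. Nano-Glo substrate added, 0.5 h, luminescence read as non-degraded STAT6. Terfenadine 50 μM (cell kill) defines 100% degradation.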

Row | SMILES | EC50 [1] [nM] | DC50 (STAT6) [nM]
1 | CNc1cc(=O)n(-c2ccnc3c2cc([C@H](C)N2CC=C(c4c(C)cc(C(=O)N5CCC(CN6CCN(Cc7ccc8c(c7)n(C7CC7)c(=O)n8C7CCC(=O)NC7=O)C[C@@H]6C)CC5)cc4F)CC2)n3C)cc1F (stereo partly drawn) [Example 3u118, 3-(3-cyclopropyl-5-(((S)-4-((1-(3-fluoro-4-(1-((S)-1-(4-(5-fluoro-4-(methylamino)-2-oxopyridin-1 (2H)-yl)-1-methyl-1H-pyrrolo[2,3-b]pyridin-2-yl)ethyl)-1,2,3,6-tetrahydropyridin-4-yl)-5-methylbenzoyl)piperidin-4-yl)methyl)-3-methylpiperazin-1-yl)methyl)-2-oxo-2,3-dihydro-1H-benzo[d]imidazol-1-yl)piperidine-2,6-dione] | 2.2 | 1.2
2 | Cc1cc(C(=O)N2CCC(CN3CCN(Cc4ccc5c(c4)C4(CC4)C(=O)N5C4CCC(=O)NC4=O)C[C@@H]3C)CC2)cc(F)c1C1=CCN([C@@H](C)c2cc3c(-n4cc(F)c(N)c(F)c4=O)ccnc3n2C)CC1 (stereo partly drawn) [Example 3u121, 3-(5′-(((S)-4-((1-(4-(1-((S)-1-(4-(4-amino-3,5-difluoro-2-oxopyridin-1 (2H)-yl)-1-methyl-1H-pyrrolo[2,3-b]pyridin-2-yl)ethyl)-1,2,3,6-tetrahydropyridin-4-yl)-3-fluoro-5-methyl-benzoyl)piperidin-4-yl)methyl)-3-methylpiperazin-1-yl)methyl)-2′-oxospiro[cyclopropane-1,3′-indolin]-1′-yl)piperidine-2,6-dione] | 2 | 2.5
3 | C[C@H]1CN(Cc2ccc3c(c2)C2(CC2)C(=O)N3[C@@H]2CCC(=O)NC2=O)CCN1CC1CCN(C(=O)c2cc(F)c(C3=CCN([C@@H](C)c4cc5c(-n6cc(F)c7c(c6=O)CCN7)ccnc5n4C)CC3)c(F)c2)CC1 [Example 3u127, (R)-3-(5′-(((S)-4-((1-(3,5-difluoro-4-(1-((S)-1-(4-(7-fluoro-4-oxo-1,2,3,4-tetrahydro-5H-pyrrolo[3,2-c]pyridin-5-yl)-1-methyl-1H-pyrrolo[2,3-b]pyridin-2-yl)ethyl)-1,2,3,6-tetrahydropyridin-4-yl)benzoyl)piperidin-4-yl)methyl)-3-methylpiperazin-1-yl)methyl)-2′-oxospiro[cyclopropane-1,3′-indolin]-1′-yl)piperidine-2,6-dione] | 14.8 | 5.4
4 | CNc1cc(=O)n(-c2ccnc3c2cc([C@H](C)N2CC=C(c4c(F)cc(C(=O)N5CCC(CN6CCN(Cc7ccc8c(c7)n(C7CC7)c(=O)n8C7CCC(=O)NC7=O)C[C@@H]6C)CC5)cc4F)CC2)n3C)cc1F (stereo partly drawn) [Example 3u128, 3-(3-cyclopropyl-5-(((S)-4-((1-(3,5-difluoro-4-(1-((S)-1-(4-(5-fluoro-4-(methylamino)-2-oxopyridin-1 (2H)-yl)-1-methyl-1H-pyrrolo[2,3-b]pyridin-2-yl)ethyl)-1,2,3,6-tetrahydropyridin-4-yl)benzoyl)piperidin-4-yl)methyl)-3-methylpiperazin-1-yl)methyl)-2-oxo-2,3-dihydro-1H-benzo[d]imidazol-1-yl)piperidine-2,6-dione] | 1.6 | 1.1
5 | Cc1cc(C(=O)N2CCC(CN3CCN(Cc4cc5c(cc4F)n(C4CCC(=O)NC4=O)c(=O)n5C4CC4)CC3)CC2)cc(F)c1C1=CCN([C@@H](C)c2cc3c(-n4ccc5c(c4=O)CCN5)ccnc3n2C)CC1 (stereo partly drawn) [Example 3u146, 3-(3-cyclopropyl-6-fluoro-5-((4-((1-(3-fluoro-5-methyl-4-(1-((S)-1-(1-methyl-4-(4-oxo-1,2,3,4-tetrahydro-5H-pyrrolo[3,2-c]pyridin-5-yl)-1H-pyrrolo[2,3-b]pyridin-2-yl)ethyl)-1,2,3,6-tetrahydropyridin-4-yl)benzoyl)piperidin-4-yl)methyl)piperazin-1-yl)methyl)-2-oxo-2,3-dihydro-1H-benzo[d]imidazol-1-yl)piperidine-2,6-dione] | 1.4 | 1.7
6 | CNc1ccn(-c2ccnc3c2cc(CN2CCC(c4c(F)cc(C(=O)N5CCC(CN6CCN(c7ccc8c(c7)C7(CC7)C(=O)N8C7CCC(=O)NC7=O)CC6)CC5)cc4F)CC2)n3C)c(=O)c1 (stereo not shown) [Example 3u149, 3-(5′-(4-((1-(3,5-difluoro-4-(1-((1-methyl-4-(4-(methylamino)-2-oxopyridin-1 (2H)-yl)-1H-pyrrolo[2,3-b]pyridin-2-yl)methyl)piperidin-4-yl)benzoyl)piperidin-4-yl)methyl)piperazin-1-yl)-2′-oxospiro[cyclopropane-1,3′-indolin]-1′-yl)piperidine-2,6-dione] | 27.6 | 33.8

These reach a lower EC50 [1]. Values come first.

Row | EC50 [1] [nM] | DC50 (STAT6) [nM] | SMILES
7 | 0.6 | 1.2 | CNc1ccn(-c2ccnc3c2cc([C@H](C)N2CC=C(c4c(C)cc(C(=O)N5CCC(CN6CCN(Cc7ccc8c(c7)n(C7CC7)c(=O)n8C7CCC(=O)NC7=O)CC6)CC5)cc4F)CC2)n3C)c(=O)c1 (stereo partly drawn) [Example 3u122, 3-(3-cyclopropyl-5-((4-((1-(3-fluoro-5-methyl-4-(1-((S)-1-(1-methyl-4-(4-(methylamino)-2-oxopyridin-1 (2H)-yl)-1H-pyrrolo[2,3-b]pyridin-2-yl)ethyl)-1,2,3,6-tetrahydropyridin-4-yl)benzoyl)piperidin-4-yl)methyl)piperazin-1-yl)methyl)-2-oxo-2,3-dihydro-1H-benzo[d]imidazol-1-yl)piperidine-2,6-dione]
8 | 0.6 | 0.8 | CNc1ccn(-c2ccnc3c2cc([C@H](C)N2CC=C(c4c(C)cc(C(=O)N5CCC(CN6CCN(Cc7ccc8c(c7)C7(CC7)C(=O)N8C7CCC(=O)NC7=O)C[C@@H]6C)CC5)cc4F)CC2)n3C)c(=O)n1 (stereo partly drawn) [Example 3u125, 3-(5′-(((S)-4-((1-(3-fluoro-5-methyl-4-(1-((S)-1-(1-methyl-4-(4-(methylamino)-2-oxopyrimidin-1 (2H)-yl)-1H-pyrrolo[2,3-b]pyridin-2-yl)ethyl)-1,2,3,6-tetrahydropyridin-4-yl)benzoyl)piperidin-4-yl)methyl)-3-methylpiperazin-1-yl)methyl)-2′-oxospiro[cyclopropane-1,3′-indolin]-1′-yl)piperidine-2,6-dione]
9 | 0.2 | 0.4 | CN(C(=O)c1cc(F)c(C2CCN(Cc3cc4c(-n5cc(F)c6c(c5=O)CCN6)ccnc4n3C)CC2)c(F)c1)c1ccc(C2CCN(Cc3ccc4c(c3)n(C)c(=O)n4C3CCC(=O)NC3=O)CC2)cc1 (stereo not shown) [Example 3u126, N-(4-(1-((1-(2,6-dioxopiperidin-3-yl)-3-methyl-2-oxo-2,3-dihydro-1H-benzo[d]imidazol-5-yl)methyl)piperidin-4-yl)phenyl)-3,5-difluoro-4-(1-((4-(7-fluoro-4-oxo-1,2,3,4-tetrahydro-5H-pyrrolo[3,2-c]pyridin-5-yl)-1-methyl-1H-pyrrolo[2,3-b]pyridin-2-yl)methyl)piperidin-4-yl)-N-methylbenzamide]
10 | 0.4 | 0.2 | Cc1cc(C(=O)N2CCC(CN3CCN(Cc4ccc5c(c4)n(C)c(=O)n5C4CCC(=O)NC4=O)C[C@@H]3C)CC2)cc(F)c1C1=CCN([C@@H](C)c2cc3c(-n4ccc5c(c4=O)CCN5)ccnc3n2C)CC1 (stereo partly drawn) [Example 3u137, 3-(5-(((S)-4-((1-(3-fluoro-5-methyl-4-(1-((S)-1-(1-methyl-4-(4-oxo-1,2,3,4-tetrahydro-5H-pyrrolo[3,2-c]pyridin-5-yl)-1H-pyrrolo[2,3-b]pyridin-2-yl)ethyl)-1,2,3,6-tetrahydropyridin-4-yl)benzoyl)piperidin-4-yl)methyl)-3-methylpiperazin-1-yl)methyl)-3-methyl-2-oxo-2,3-dihydro-1H-benzo[d]imidazol-1-yl)piperidine-2,6-dione]
11 | 1 | 1.4 | Cc1cc(C(=O)N2CCC(CN3CCN(Cc4ccc5c(c4)n(C4CC4)c(=O)n5C4CCC(=O)NC4=O)CC3)CC2)cc(F)c1C1=CCN([C@@H](C)c2cc3c(-n4ccc5c(c4=O)CCN5)ccnc3n2C)CC1 (stereo partly drawn) [Example 3u140, 3-(3-cyclopropyl-5-((4-((1-(3-fluoro-5-methyl-4-(1-((S)-1-(1-methyl-4-(4-oxo-1,2,3,4-tetrahydro-5H-pyrrolo[3,2-c]pyridin-5-yl)-1H-pyrrolo[2,3-b]pyridin-2-yl)ethyl)-1,2,3,6-tetrahydropyridin-4-yl)benzoyl)piperidin-4-yl)methyl)piperazin-1-yl)methyl)-2-oxo-2,3-dihydro-1H-benzo[d]imidazol-1-yl)piperidine-2,6-dione]
